Laboratory results as given in patent US10653784B2, “Hydrophobic highly branched carbohydrate polymers” (Purdue Research Foundation, priority 2015, dated 2020).
≈ marks a conversion by molar mass, not a printed value.

How the values were obtained:
[1] = Solubility of celecoxib in HBSS (centrifugation, HPLC of supernatant); type: physicochemical; settings: Hank's Balanced Salt Solution (HBSS), aqueous buffer, thermodynamic from solid, 37° C., 2 h mixing, API/excipient 1/5, total dispersed API 1,000 μg/mL, 16,000 g 10 min, read-out: water solubility of celecoxib (concentration in supernatant)
Method: FIG. 8 provides a graph showing the solubility of celecoxib when incorporated with OHPP, HPMCAS, and Soluplus, as compared with that of celecoxib alone. The ratios between celecoxib and each excipient was 1/5, with total dispersed API of 1,000 μg/mL in HBSS buffer (37° C.). The mixing time was 2 h before subjecting the dispersion to centrifugation to collect supernatant for celecoxib quantification. The weight ratio of celecoxib, OHPP, and HPMCAS was 1, 3, and 2 respectively for the Cel-OHPP-HPMCAS preparation.
Thereafter, the dispersions were centrifuged at 16,000 g for 10 min, and the supernatants were collected for celecoxib quantification using HPLC. The concentration of celecoxib in the supernatant was considered as its water solubility.

physchem = type: physicochemical
Method: (§1) FIG. 7 provides a graph showing the solubility of curcumin when incorporated with OHPP, HPMCAS, and Soluplus, as compared with that of curcumin alone. The ratio between curcumin and excipient was 1/9, with total dispersed curcumin of 1,000 μg/mL in HBSS buffer (37° C.). The mixing time was 2 h before subjecting the dispersion to centrifugation to collect supernatant for curcumin quantification.
Thereafter, the dispersions were centrifuged at 16,000 g for 10 min, and the supernatants were collected for curcumin quantification using HPLC. The concentration of curcumin in the supernatant was considered as its water solubility.

[2] = Solubility of docetaxel in HBSS (centrifugation, HPLC of supernatant); type: physicochemical; settings: Hank's Balanced Salt Solution (HBSS), aqueous buffer, thermodynamic from solid, 20° C., 10 min vortex, API/excipient 1/3, total dispersed API 2,500 μg/mL, 16,000 g 10 min, read-out: water solubility of docetaxel (concentration in supernatant)
Method: as §1, with “5” for “7”, “docetaxel” for “curcumin”, “1/3,” for “1/9,”, “2,500” for “1,000”, “(20°” for “(37°”, “10 min” for “2 h”
Thereafter, the dispersions were centrifuged at 16,000 g for 10 min, and the supernatants were collected for docetaxel quantification using HPLC. The concentration of docetaxel in the supernatant was considered as its water solubility.

[3] = Solubility of griseofulvin in HBSS (centrifugation, HPLC of supernatant); type: physicochemical; settings: Hank's Balanced Salt Solution (HBSS), aqueous buffer, thermodynamic from solid, 37° C., 2 h mixing, API/excipient 1/3, total dispersed API 2,500 μg/mL, 16,000 g 10 min, read-out: water solubility of griseofulvin (concentration in supernatant)
Method: The mixing time was 2 h before subjecting the dispersion to centrifugation to collect supernatant for griseofulvin quantification.
Thereafter, the dispersions were centrifuged at 16,000 g for 10 min, and the supernatants were collected for griseofulvin quantification using HPLC. The concentration of griseofulvin in the supernatant was considered as its water solubility.

[4] = Solubility of itraconazole in HBSS (centrifugation, HPLC of supernatant); type: physicochemical; settings: Hank's Balanced Salt Solution (HBSS), aqueous buffer, thermodynamic from solid, 20° C., 10 min vortex, API/excipient 1/3, total dispersed API 2,500 μg/mL, 16,000 g 10 min, read-out: water solubility of itraconazole (concentration in supernatant)
Method: as §1, with “6” for “7”, “itraconazole” for “curcumin”, “1/3,” for “1/9,”, “2,500” for “1,000”, “(20°” for “(37°”, “10 min” for “2 h”
Thereafter, the dispersions were centrifuged at 16,000 g for 10 min, and the supernatants were collected for itraconazole quantification using HPLC. The concentration of itraconazole in the supernatant was considered as its water solubility.

[5] = Solubility of niclosamide in HBSS (centrifugation, HPLC of supernatant); type: physicochemical; settings: Hank's Balanced Salt Solution (HBSS), aqueous buffer, thermodynamic from solid, 37° C., 2 h mixing, API/excipient 1/3, total dispersed API 2,500 μg/mL, 16,000 g 10 min, read-out: water solubility of niclosamide (concentration in supernatant)
Method: FIG. 2 provides a graph showing the solubility of niclosamide when incorporated with OHPP, HPMCAS, and Soluplus (Soluplus®, BASF), as compared with that of niclosamide alone. The ratio between niclosamide and excipient was 1/3, with total dispersed API of 2,500 μg/mL in HBSS buffer (37° C.). The mixing time was 2 h before subjecting the dispersion to centrifugation to collect supernatant for API quantification.
Thereafter, the dispersions were centrifuged at 16,000 g for 10 min, and the supernatants were collected for niclosamide quantification using HPLC. The concentration of niclosamide in the supernatant was considered as its water solubility.

[6] = Solubility of paclitaxel in HBSS (centrifugation, HPLC of supernatant); type: physicochemical; settings: Hank's Balanced Salt Solution (HBSS), aqueous buffer, thermodynamic from solid, 37° C., 2 h mixing, API/excipient 1/3, total dispersed API 2,500 μg/mL, 16,000 g 10 min, read-out: water solubility of paclitaxel (concentration in supernatant)
Method: The mixing time was 2 h before subjecting the dispersion to centrifugation to collect supernatant for paclitaxel quantification.
Thereafter, the dispersions were centrifuged at 16,000 g for 10 min, and the supernatants were collected for paclitaxel quantification using HPLC. The concentration of paclitaxel in the supernatant was considered as its water solubility.

Method for Caco-2 cell monolayer: Nic-1000 and Nic-100: supernatant from centrifuged dispersion of pure niclosamide in HBSS at dispersing dose of 1000 and 100 μg/mL, respectively. Cel-1000 and Cel-100: supernatant from centrifuged dispersion of pure celecoxib in HBSS at dispersing dose of 1000 and 100 μg/mL, respectively. Nic-OHPP-100: supernatant from centrifuged dispersion of Nic-OHPP in HBSS at dispersing dose of 100 μg/mL (for pure niclosamide). Cel-OHPP-HPMCAS-100: supernatant of Cel-OHPP-HPMCAS dispersed in HBSS buffer at 100 μg/mL.
Caco-2 cells were seeded in the inserts with tissue-culture-treated polyester membranes (Transwells, 0.4 μm pore size, Corning) at a density of 1×10^4 cells/well. After seeding, the medium was changed every other day until the day of the permeation test. All tests were performed on day 21 after seeding. For the test, the culture medium was removed and the cells were washed twice with PBS buffer. The cells were then equilibrated in HBSS for 15 min prior to each study, and then apical and basolateral solution were aspirated.
To measure the apical-to-basolateral permeation of API, 0.5 mL of each test solution was added to the apical compartment, and the basolateral compartment received 1.5 mL HBSS. As a control, reference cells were incubated with 0.5 mL blank HBSS on the apical side, while the basolateral side received 1.5 mL of HBSS. All cultures were incubated in an incubator (5% CO2, 37° C.) for 2 h. After the incubation, the apical and the basolateral solutions were collected respectively and their amounts of API were determined using HPLC.
The loaded dispersions were prepared in two steps: (1) dispersing API-excipient complex solid and API alone in HBSS at the doses of 1000 μg/mL or 100 μg/mL, and (2) subjecting each dispersion to centrifugation (16,000 g, 5 min) to collect supernatant. The supernatants were loaded in the apical compartments of inserts.

## Cc1ccc(-c2cc(C(F)(F)F)nn2-c2ccc(S(N)(=O)=O)cc2)cc1 [celecoxib]
Caco-2 cell monolayer
  permeation of API through Caco-2 monolayer, API alone: not sufficient to provide an appreciable permeation
[1]
  solubility at 2 h: ~12.8 µg/mL

## COc1cc(/C=C/C(=O)CC(=O)/C=C/c2ccc(O)c(OC)c2)ccc1O [curcumin]
physchem; 37 °C, aqueous buffer, thermodynamic from solid
  solubility at 2 h: ~7.2 µg/mL (≈ 19.5 µM)

## CC(=O)O[C@@]12CO[C@@H]1C[C@H](O)[C@@]1(C)C(=O)[C@H](O)C3=C(C)[C@@H](OC(=O)[C@H](O)[C@@H](NC(=O)OC(C)(C)C)c4ccccc4)C[C@@](O)([C@@H](OC(=O)c4ccccc4)[C@H]21)C3(C)C [docetaxel]
[2]
  solubility at 10 min: ~11.1 µg/mL

## COC1=CC(=O)C[C@@H](C)[C@]12Oc1c(Cl)c(OC)cc(OC)c1C2=O [griseofulvin]
[3]
  solubility at 2 h: ~17.5 µg/mL

## CCC(C)n1ncn(-c2ccc(N3CCN(c4ccc(OCC5COC(Cn6cncn6)(c6ccc(Cl)cc6Cl)O5)cc4)CC3)cc2)c1=O (centres unmarked) [itraconazole]
[4]
  solubility at 10 min: ~0.96 µg/mL

## O=C(Nc1ccc([N+](=O)[O-])cc1Cl)c1cc(Cl)ccc1O [niclosamide]
Caco-2 cell monolayer
  permeation of API through Caco-2 monolayer, API alone: not sufficient to provide an appreciable permeation
[5]
  solubility at 2 h: ~13.2 µg/mL

## CC(=O)O[C@H]1C(=O)[C@@]2(C)[C@H]([C@H](OC(=O)c3ccccc3)[C@]3(O)C[C@H](OC(=O)[C@H](O)[C@@H](NC(=O)c4ccccc4)c4ccccc4)C(C)=C1C3(C)C)[C@]1(OC(C)=O)CO[C@@H]1C[C@@H]2O [paclitaxel]
[6]
  solubility at 2 h: ~6.2 µg/mL

## octenylsuccinate hydroxypropyl phytoglycogen [OHPP]
Caco-2 cell monolayer
  permeation of API through Caco-2 monolayer when OHPP was used: substantially increased
physchem
  increase of the solubility of curcumin in aqueous solution by use of OHPP: at least 100 times
